Key:
[1] = target: Angiotensin-converting enzyme (Homo sapiens, UniProt P12821); test: Inhibition of angiotensin-converting enzyme (unknown origin)
BaF3 = test: Antitumor activity against mouse BaF3 cells harboring EGFR L858R/C797S mutant allografted in Balb/c nude mouse assessed as in tumor growth inhibition at 10 mg/kg, po administered twice daily measured after 6 days; type: functional; conditions: BaF3, 144 h, time 6 day, read-out: TGI
[2] = target: T1, Muscarinic acetylcholine receptor M2 (Homo sapiens) (UniProt P08172); test: Inhibition of muscarinic M2 receptor (unknown origin) at 10 uM relative to control
T1 sequence (whole entry): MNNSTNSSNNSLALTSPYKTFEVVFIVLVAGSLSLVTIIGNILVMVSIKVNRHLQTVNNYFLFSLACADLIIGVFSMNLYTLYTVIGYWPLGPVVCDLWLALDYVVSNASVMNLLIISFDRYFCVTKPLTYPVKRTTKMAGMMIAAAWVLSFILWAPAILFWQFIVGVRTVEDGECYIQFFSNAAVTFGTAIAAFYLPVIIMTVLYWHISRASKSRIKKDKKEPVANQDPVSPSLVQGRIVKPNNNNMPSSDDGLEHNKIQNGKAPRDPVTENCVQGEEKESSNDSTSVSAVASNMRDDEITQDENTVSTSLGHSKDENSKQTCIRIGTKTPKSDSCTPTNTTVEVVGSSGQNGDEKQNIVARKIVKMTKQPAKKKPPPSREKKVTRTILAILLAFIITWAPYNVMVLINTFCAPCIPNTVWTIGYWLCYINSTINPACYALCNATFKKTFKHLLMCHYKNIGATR

[3] = target: T2, Adenosine receptor A3 (Homo sapiens) (UniProt P0DMS8); test: Inhibition of adenosine A3 receptor (unknown origin) at 10 uM relative to control
T2 sequence (whole entry): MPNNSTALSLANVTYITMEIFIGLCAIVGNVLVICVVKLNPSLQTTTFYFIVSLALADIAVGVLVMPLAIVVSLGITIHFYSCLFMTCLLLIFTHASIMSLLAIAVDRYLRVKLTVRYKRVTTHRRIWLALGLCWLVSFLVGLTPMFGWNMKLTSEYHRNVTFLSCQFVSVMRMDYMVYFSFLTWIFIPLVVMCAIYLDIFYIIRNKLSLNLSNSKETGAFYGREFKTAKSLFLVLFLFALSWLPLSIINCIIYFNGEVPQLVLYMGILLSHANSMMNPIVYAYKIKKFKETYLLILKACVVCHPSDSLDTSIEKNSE

[4] = target: T3, Muscarinic acetylcholine receptor M2 (Homo sapiens, UniProt P08172); test: Inhibition of muscarinic M2 receptor (unknown origin)
T3 sequence (P08172 whole entry): T1 sequence (whole entry)

NCI-H1975 = test: Antitumor activity against human NCI-H1975 cells harboring EGFR L858R/T790M mutant xenografted in Balb/c nude mouse assessed as in tumor growth inhibition at 10 mg/kg, po administered twice daily measured after 14 days; type: functional; conditions: NCI-H1975, 336 h, time 14 day, read-out: TGI
[5] = target: T4, Glucocorticoid receptor (Homo sapiens) (UniProt P04150); test: Inhibition of glucocorticoid receptor (unknown origin) at 10 uM relative to control
T4 sequence (whole entry): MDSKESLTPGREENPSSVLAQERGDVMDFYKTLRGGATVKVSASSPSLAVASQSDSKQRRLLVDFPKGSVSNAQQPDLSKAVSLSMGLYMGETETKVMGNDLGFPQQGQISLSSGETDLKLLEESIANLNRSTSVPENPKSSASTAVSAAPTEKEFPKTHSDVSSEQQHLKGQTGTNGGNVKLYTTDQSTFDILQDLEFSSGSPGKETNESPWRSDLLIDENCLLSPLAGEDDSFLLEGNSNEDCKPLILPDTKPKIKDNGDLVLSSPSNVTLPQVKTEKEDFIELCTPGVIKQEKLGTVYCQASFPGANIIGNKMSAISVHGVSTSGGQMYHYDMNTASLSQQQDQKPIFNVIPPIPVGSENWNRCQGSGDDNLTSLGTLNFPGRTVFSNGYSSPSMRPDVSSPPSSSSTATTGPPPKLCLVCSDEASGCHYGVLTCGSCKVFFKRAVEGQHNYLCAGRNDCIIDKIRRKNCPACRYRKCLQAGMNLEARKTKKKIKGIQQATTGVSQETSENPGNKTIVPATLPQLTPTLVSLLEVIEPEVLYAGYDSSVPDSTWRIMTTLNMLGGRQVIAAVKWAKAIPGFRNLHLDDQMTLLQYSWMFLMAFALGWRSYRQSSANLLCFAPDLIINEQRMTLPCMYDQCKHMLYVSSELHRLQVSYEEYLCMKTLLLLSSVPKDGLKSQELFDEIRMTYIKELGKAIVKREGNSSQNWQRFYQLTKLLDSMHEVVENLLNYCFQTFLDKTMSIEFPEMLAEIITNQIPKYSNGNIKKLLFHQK

Adenosine receptor A3 = target: T5, Adenosine receptor A3 (Homo sapiens, UniProt P0DMS8); test: Inhibition of adenosine A3 receptor (unknown origin)
T5 sequence (P0DMS8 whole entry): T2 sequence (whole entry)

Angiotensin-converting enzyme, sequence (P12821 whole entry): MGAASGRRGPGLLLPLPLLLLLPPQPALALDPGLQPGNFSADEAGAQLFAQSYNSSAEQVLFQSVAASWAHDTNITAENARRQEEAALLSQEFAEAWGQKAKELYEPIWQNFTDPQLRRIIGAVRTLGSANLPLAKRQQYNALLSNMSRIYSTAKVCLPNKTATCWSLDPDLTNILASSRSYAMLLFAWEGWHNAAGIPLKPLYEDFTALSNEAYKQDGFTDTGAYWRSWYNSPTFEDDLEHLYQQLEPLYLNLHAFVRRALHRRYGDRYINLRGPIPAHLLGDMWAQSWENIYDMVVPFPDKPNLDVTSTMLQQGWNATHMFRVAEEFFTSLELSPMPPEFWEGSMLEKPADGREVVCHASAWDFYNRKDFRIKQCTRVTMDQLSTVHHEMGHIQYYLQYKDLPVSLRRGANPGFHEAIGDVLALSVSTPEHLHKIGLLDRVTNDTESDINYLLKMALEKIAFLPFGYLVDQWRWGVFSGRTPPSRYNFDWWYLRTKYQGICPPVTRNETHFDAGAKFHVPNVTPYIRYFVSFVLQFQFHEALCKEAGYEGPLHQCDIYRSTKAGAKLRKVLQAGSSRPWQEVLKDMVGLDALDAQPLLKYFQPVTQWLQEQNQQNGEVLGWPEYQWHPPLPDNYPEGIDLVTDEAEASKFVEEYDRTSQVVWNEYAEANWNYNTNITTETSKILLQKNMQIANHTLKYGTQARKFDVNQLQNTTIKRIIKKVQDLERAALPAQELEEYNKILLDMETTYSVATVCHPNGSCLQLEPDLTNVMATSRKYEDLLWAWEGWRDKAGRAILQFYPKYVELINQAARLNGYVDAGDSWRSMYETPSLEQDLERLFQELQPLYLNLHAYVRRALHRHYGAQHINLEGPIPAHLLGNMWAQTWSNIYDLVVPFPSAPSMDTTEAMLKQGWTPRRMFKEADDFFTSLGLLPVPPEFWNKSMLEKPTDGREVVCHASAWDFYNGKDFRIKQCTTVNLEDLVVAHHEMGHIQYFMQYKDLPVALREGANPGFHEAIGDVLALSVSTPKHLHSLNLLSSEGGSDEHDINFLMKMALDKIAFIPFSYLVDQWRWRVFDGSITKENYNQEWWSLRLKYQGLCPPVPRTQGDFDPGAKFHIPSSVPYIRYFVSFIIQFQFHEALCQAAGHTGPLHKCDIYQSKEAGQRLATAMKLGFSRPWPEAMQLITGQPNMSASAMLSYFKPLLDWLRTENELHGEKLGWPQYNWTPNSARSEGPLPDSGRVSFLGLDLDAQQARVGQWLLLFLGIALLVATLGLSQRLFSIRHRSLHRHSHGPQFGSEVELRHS

In the case of Cc1c(C#Cc2ccc(CN3CCC(CO)CC3)cc2)cc(C(F)F)c2cn(C(C(=O)Nc3nccs3)c3ncn4c3CCC43CC3)nc12 (stereo not drawn), the IC50 [1] is reported as > 3 µM, the inhibition in vivo at 10 mg/kg (BaF3) is reported as 84% and the inhibition [2] is reported as 91%. It also gave an inhibition [3] of 94%, an IC50 [4] of 1.8 µM and an inhibition in vivo at 10 mg/kg (NCI-H1975) of 69%. For the same compound, the inhibition [5] was 90% and the IC50 (Adenosine receptor A3) was 0.2 µM.

Reference: ChEMBL document CHEMBL5113538, “Discovery of Novel Allosteric EGFR L858R Inhibitors for the Treatment of Non-Small-Cell Lung Cancer as a Single Agent or in Combination with Osimertinib” (J Med Chem, 2022)
